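Method: 48-hour compound exposure of cells in 96-well plates, five concentrations, linear interpolation of endpoints. Abbreviation: GI50, concentration required for 50% inhibition of growth. TGI: concentration producing complete growth inhibition.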
How the values were obtained:
Assay in all cases: NCI-60 cell line screen, 48 h
[1] = system: BT-549 breast
[2] = system: SF-295 CNS
[3] = system: TK-10 renal
[4] = system: COLO 205 colon
[5] = system: OVCAR-3 ovarian
[6] = system: UACC-257 melanoma
[7] = system: UACC-62 melanoma
[8] = system: A549 NSCLC
[9] = system: OVCAR-5 ovarian
[10] = system: HCT-15 colon
[11] = system: UO-31 renal
[12] = system: SF-268 CNS
[13] = system: RXF 393 renal
[14] = system: SW-620 colon
[15] = system: EKVX NSCLC
[16] = system: MDA-MB-231 breast
[17] = system: PC-3 prostate
[18] = system: NCI-H23 lung
[19] = system: OVCAR-4 ovarian
[20] = system: MDA-MB-435
[21] = system: MALME-3M melanoma
[22] = system: A498 renal
[23] = system: 786-0 renal
[24] = system: NCI-H460 lung
[25] = system: HCT-116 colon
[26] = system: LOX IMVI melanoma
[27] = system: HOP-62 NSCLC
[28] = system: MCF7 breast
[29] = system: HOP-92 NSCLC
[30] = system: NCI-H522 lung
[31] = system: KM12 colon
[32] = system: M14 melanoma
[33] = system: DU-145 prostate
[34] = system: SK-MEL-5 melanoma
[35] = system: NCI/ADR-RES ovarian
[36] = system: SNB-19 CNS
[37] = system: OVCAR-8 ovarian
[38] = system: SK-MEL-28 melanoma
[39] = system: HCC-2998 colon
[40] = system: SN12C renal
[41] = system: SK-MEL-2 melanoma
[42] = system: SNB-75 CNS
[43] = system: U251 CNS
[44] = system: HT29 colon
[45] = system: SF-539 CNS
[46] = system: SK-OV-3 ovarian
[47] = system: HS 578T breast
[48] = system: ACHN renal
[49] = system: T-47D breast

For `Cc1cc(N(CCNc2ccnc3cc(Cl)ccc23)Cc2ccco2)nc(Cl)n1`, the GI50 [1] was 1.69 µM, the TGI [1] was 3.14 µM and the GI50 [2] was 1.51 µM. It also gave a TGI [2] of 3 µM, a GI50 [3] of 1.81 µM and a TGI [3] of 3.21 µM. For the same compound, the GI50 [4] was 1.71 µM, the TGI [4] was 3.3 µM and the GI50 [5] was 1.61 µM. For the same compound, the TGI [5] was 3.01 µM, the GI50 [6] was 1.9 µM and the TGI [6] was 3.68 µM. The GI50 [7] was 1.78 µM, the TGI [7] was 3.38 µM and the GI50 [8] was 1.85 µM. It also gave a TGI [8] of 3.42 µM, a GI50 [9] of 1.68 µM and a TGI [9] of 3.23 µM. For the same compound, the GI50 [10] was 1.64 µM, the TGI [10] was 3.19 µM and the GI50 [11] was 1.49 µM. It also gave a TGI [11] of 2.89 µM, a GI50 [12] of 2.16 µM and a TGI [12] of 6.01 µM. It also gave a GI50 [13] of 1.27 µM, a TGI [13] of 2.68 µM and a GI50 [14] of 1.75 µM. The TGI [14] was 3.46 µM, the GI50 [15] was 1.61 µM and the TGI [15] was 3.58 µM. It also gave a GI50 [16] of 1.68 µM, a TGI [16] of 3.24 µM and a GI50 [17] of 1.71 µM. It also gave a TGI [17] of 3.18 µM, a GI50 [18] of 1.77 µM and a TGI [18] of 3.93 µM. The GI50 [19] was 1.49 µM, the TGI [19] was 2.95 µM and the GI50 [20] was 1.72 µM. It also gave a TGI [20] of 3.37 µM, a GI50 [21] of 1.78 µM and a TGI [21] of 3.33 µM. The GI50 [22] was 1.87 µM, the TGI [22] was 4.21 µM and the GI50 [23] was 1.57 µM. For the same compound, the TGI [23] was 2.91 µM, the GI50 [24] was 1.91 µM and the TGI [24] was 3.6 µM. The GI50 [25] was 1.48 µM, the TGI [25] was 2.84 µM and the GI50 [26] was 1.59 µM. It also gave a TGI [26] of 3.07 µM, a GI50 [27] of 1.68 µM and a TGI [27] of 3.38 µM. The GI50 [28] was 1.65 µM, the TGI [28] was 3.32 µM and the GI50 [29] was 1.47 µM. It also gave a TGI [29] of 2.94 µM, a GI50 [30] of 1.75 µM and a TGI [30] of 3.71 µM. It also gave a GI50 [31] of 1.89 µM, a TGI [31] of 3.95 µM and a GI50 [32] of 1.6 µM. The TGI [32] was 3.01 µM, the GI50 [33] was 1.99 µM and the TGI [33] was 4.15 µM. The GI50 [34] was 1.72 µM, the TGI [34] was 3.13 µM and the GI50 [35] was 1.86 µM. For the same compound, the TGI [35] was 3.96 µM, the GI50 [36] was 1.91 µM and the TGI [36] was 3.74 µM. It also gave a GI50 [37] of 2.06 µM, a TGI [37] of 4.42 µM and a GI50 [38] of 1.74 µM. It also gave a TGI [38] of 3.38 µM, a GI50 [39] of 1.72 µM and a TGI [39] of 3.3 µM. It also gave a GI50 [40] of 1.79 µM, a TGI [40] of 3.44 µM and a GI50 [41] of 1.9 µM. The TGI [41] was 3.83 µM, the GI50 [42] was 1.47 µM and the TGI [42] was 2.97 µM. It also gave a GI50 [43] of 1.62 µM, a TGI [43] of 3.01 µM and a GI50 [44] of 1.58 µM. For the same compound, the TGI [44] was 3.24 µM, the GI50 [45] was 1.82 µM and the TGI [45] was 3.32 µM. For the same compound, the GI50 [46] was 1.66 µM, the TGI [46] was 3.13 µM and the GI50 [47] was 2.43 µM. The TGI [47] was 6.28 µM, the GI50 [48] was 1.65 µM and the TGI [48] was 3.02 µM. For the same compound, the GI50 [49] was 1.52 µM and the TGI [49] was 3.58 µM.

From PubChem BioAssay (NCI)
